Data taken from patent US20050100983A1, “Cell-free methods for identifying compounds that affect toll-like receptor 9 (TLR9) signaling” (Coley Pharmaceutical GmbH, priority 2003, published 2005).
Where a chain is given by its changes, count along the chain named.

What was measured:
mTLR9ect = target: T1, mTLR9ect (Mus musculus, UniProt Q9EQU3); assay: UV-crosslinking of mTLR9ect with 32P-labeled DNA and SDS-PAGE; format: binding, murine; conditions: SDS-PAGE, complex at 150 kDa
T1 construct: mTLR9ect (aa 1-816); made in house
T1 sequence (Q9EQU3 26-816): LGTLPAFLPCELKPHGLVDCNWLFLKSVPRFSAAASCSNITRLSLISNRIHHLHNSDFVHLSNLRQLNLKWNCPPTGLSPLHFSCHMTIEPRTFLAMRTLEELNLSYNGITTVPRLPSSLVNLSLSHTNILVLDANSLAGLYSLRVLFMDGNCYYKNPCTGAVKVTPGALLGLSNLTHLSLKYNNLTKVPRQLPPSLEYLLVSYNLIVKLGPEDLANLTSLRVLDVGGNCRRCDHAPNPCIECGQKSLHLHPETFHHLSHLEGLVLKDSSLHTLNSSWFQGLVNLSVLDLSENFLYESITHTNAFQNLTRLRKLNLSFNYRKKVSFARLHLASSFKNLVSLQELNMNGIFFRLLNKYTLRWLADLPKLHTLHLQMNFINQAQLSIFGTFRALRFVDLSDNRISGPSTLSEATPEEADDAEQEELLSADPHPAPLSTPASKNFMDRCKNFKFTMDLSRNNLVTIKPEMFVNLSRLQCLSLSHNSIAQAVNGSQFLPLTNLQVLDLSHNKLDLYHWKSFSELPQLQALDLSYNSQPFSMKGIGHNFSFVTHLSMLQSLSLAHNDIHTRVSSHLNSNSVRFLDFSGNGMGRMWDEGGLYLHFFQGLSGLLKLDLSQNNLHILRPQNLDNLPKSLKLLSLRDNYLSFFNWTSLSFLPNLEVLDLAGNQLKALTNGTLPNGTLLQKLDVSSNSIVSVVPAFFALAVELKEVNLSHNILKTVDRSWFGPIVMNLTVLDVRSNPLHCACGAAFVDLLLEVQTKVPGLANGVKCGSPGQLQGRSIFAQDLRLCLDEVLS
Excerpt: FIG. 1B is an image of an SDS-PAGE gel depicting purified proteins from FIG. 1A UV-crosslinked with ^32P-labeled CpG- or non-CpG-DNA, separated by SDS-PAGE, and autoradiographed. TLR9 and free DNA are highlighted.
Bauer S et al. (2001) Proc. Natl. Acad. Sci. U.S.A. 98:9237-9242. To assess binding of TLR9 to CpG-DNA, a recombinant fusion protein consisting of the extracellular domain of murine TLR9 and human IgG 1-Fc (mTLR9ect) was constructed. The extracellular domain of murine TLR2 also fused to IgG1-Fc (mTLR2ect) served as control. Proteins were expressed in HEK 293 cells and purified via protein A affinity chromatography (FIG. 1A). Under denaturing and non-reducing conditions mTLR9ect and mTLR2ect are approximately 10% in a monomeric and 90% in a dimeric form. Dimerization of the proteins is probably mediated by the IgG 1-Fc fusion partner which forms disulfide bonds (FIG. 1A). Initially, binding of mTLR9ect to radiolabeled DNA was determined by UV-crosslinking and subsequent SDS-PAGE.

[1] = target: T2, mTLR9ect-mut (D535→A and Y537→A) (Mus musculus, UniProt Q9EQU3, D535A/Y537A); assay: SPR biosensor analysis of double mutated mTLR9ect-mut on CpG-DNA; format: binding, murine; conditions: 200 nM protein, compared to wild-type mTLR9ect
T2 construct: mTLR9ect-mut (see below) (aa 1-816); made in house
T2 sequence (Q9EQU3 26-816 D535A/Y537A): T1 sequence (Q9EQU3 26-816) with D510A, Y512A
Procedure: FIG. 3B is a graph depicting SPR biosensor analysis of wild-type and double mutated mTLR9ect (mTLR9ect-mut, D535→A and Y537→A). Proteins were injected at 200 nM on sensor chips with immobilized CpG- and non-CpG-DNA and the sensorgrams recorded.
Mutation. For mutation of wild-type mTLR9 amino acids D535 and Y537 to two alanines, the primers 5′-[…]-3′ (SEQ ID NO:5) and 5′-[…]-3′ (SEQ ID NO:6) were used to generate mTLR9-mut. A site-specific-mutagenesis kit from Stratagene (Amsterdam, Netherlands) was applied according to the manufacturer's protocol. All PCR fragments were sequenced and found error-free.
SPR biosensor analysis. Real-time binding of TLR9 or TLR2 was measured by surface plasmon resonance biosensor technology using the BiaCore X system (Uppsala, Sweden). For analysis of TLR9 and TLR2 interaction, biotinylated CpG-DNA and non-CpG-DNA, or biotinylated Pam3CysK4 and PHCK4, respectively, were loaded in running buffer (50 mM MES, 150 mM NaCl, 1 mM MgCl2 at pH 6.5) on SA chips precoated with streptavidin (Biacore AB, Uppsala, Sweden). Non-CpG-DNA or PHCK4 (Wiesmuller K H et al. (1989) Vaccine 7:29-33) served as reference for CpG-DNA and Pam3CysK4 interaction (structure or sequence in Table 1). […] Binding was measured at 25° C. for 750 s (delay time 300 s). […] Sensorgrams were recorded and kinetic data were calculated by the BiaCore Evaluation program (Biacore, version 3.0.1). […]

[2] = target: T3, mTLR9ect (extracellular domain of murine TLR9 fused to human IgG1-Fc) (Mus musculus, UniProt Q9EQU3); assay: SPR biosensor analysis of mTLR9ect binding to immobilized CpG-DNA; conditions: pH 7.4
T3 construct: mTLR9ect (aa 1-816); made in house
T3 sequence (Q9EQU3 26-816): T1 sequence (Q9EQU3 26-816)

With “5′-TCCATGACGTTCCTGATGCT-3′ (chemistry not given here) [CpG-DNA 1668, synthetic CpG oligodeoxynucleotide, TLR9 ligand]” the “binding of mTLR9ect to radiolabeled DNA” value (mTLR9ect) was “bound”, the “binding of mTLR9ect-mut to CpG-DNA” value [1] was “bound only weakly” and the “TLR9 binding to CpG-DNA” value [2] was “weak”. The “dissociation of TLR9 from CpG-DNA” value [2] was “fairly rapidly”.
